The values below come from patent US20200345725A1, “Methods and Compositions for Treating Cancer” (Omeros Corporation, priority 2019, published 2020).

One assay addresses GPR174 (Homo sapiens, UniProt Q9BXC1). Briefly: CRE-Luc reporter Gs signaling assay with GPR174. The class given is cell-based. Further details: host or cells: HEK293 or CHO cell lines (ATCC). The conditions noted are these: pCRE-Luc reporter; for EC50: multiple values = separate experiments.
Another assay concerns human PBMCs. Briefly: Th1 cytokines in supernatants of stimulated human PBMC, GPR174 inhibitor with adenosine pathway inhibitors (Examples 15, 18-22). The class given is cell-based. The conditions noted are these: for IFN-γ, ratio relative to vehicle control (Veh column) / IL-2, ratio relative to vehicle control (Veh column) / TNF, ratio relative to vehicle control (Veh column): Cmpd 10 1, ZM 0.1, PBF 0.1, SCH 0.2 μM, ADA 0.75 μg/mL; for IFN-γ, ratio relative to vehicle control (MRS) / IL-2, ratio relative to vehicle control (MRS column) / TNF, ratio relative to vehicle control (MRS column): MRS-1754 1 μM added to the agent(s) of the label, label MRS = MRS alone. Here is the method:
Human PBMCs, obtained from a human volunteer donor, were dispensed at density of 1×10^6 cells/well in a 96-well flat-bottom plate and were stimulated in triplicate with 1 μg/mL anti-CD3 antibody (UCHT1) and 0.1 μg/mL anti-CD28 antibody (CD28.2) in the presence of:
Supernatants from these cells were collected at 24 hours post-stimulation and the levels of IFN-γ were determined by ELISA assay. Statistical analysis was carried out using one-way ANOVA with Tukey's post-hoc multiple comparison's correction.
Human PBMCs, obtained from a human volunteer donor (donor 1), were dispensed in X-vivo15 media (Lonza) supplemented with Glutamax, penicillin and streptomycin, at density of 1×10^6 cells/well in a 96-well flat-bottom plate and were stimulated with 1 μg/mL anti-CD3 antibody (UCHT1) and 0.1 μg/mL anti-CD28 antibody (CD28.2) in the presence of:
Supernatants from these cells were collected at 24 hours post-stimulation and the levels of IFN-γ, IL-2 and TNF were determined by ELISA assays.
Human PBMCs, obtained from two individual human volunteer donors (donor 2 and donor 3), were dispensed at density of 1×10^6 cells/well in a 96-well flat-bottom plate and were stimulated with 1 μg/mL anti-CD3 antibody (UCHT1) and 0.1 μg/mL anti-CD28 antibody (CD28.2) in the presence of:
Human PBMCs, obtained from twelve individual human volunteer donors were dispensed at density of 1×10^6 cells/well in a 96-well flat-bottom plate and were stimulated in triplicate with 1 μg/mL anti-CD3 antibody (UCHT1) and 0.1 μg/mL anti-CD28 antibody (CD28.2) in the presence of:
A total of 44 experiments using PBMC from 12 healthy donors were tested (9 donors for GM-CSF), with each donor tested in 1 to 8 separate experiments, depending on the donor (1 to 4 experiments each for GM-CSF). […] Cytokines were detected in supernatants with the Legendplex (Biolegend) or the MSB (MesoScale) platforms. […] One-way ANOVA with Tukey's post-hoc multiple comparisons correction was performed to identify significant differences (FC, mean fold change; ****, p<0.0001, ***, p<0.001; **, p<0.01; *, p<0.05, ns, not significant).
Human PBMC (1×10^6 cells/well in a 96-well flat-bottom plate) obtained from donor 3 and donor 6 were stimulated with 1 μg/mL anti-CD3 antibody (UCHT1) and 0.1 μg/mL anti-CD28 antibody (CD28.2) in the presence of:
Supernatants from these cells were collected at 24 hours post-stimulation and the levels of IFN-γ, IL-2, and TNF were determined with the MSD platform (MesoScale Discovery).
Human PBMC (1×10^6 cells/well in a 96-well flat-bottom plate) obtained from donor 7 were stimulated with 1 μg/mL […] (UCHT1) and 0.1 μg/mL anti-CD28 antibody (CD28.2) in the presence of:
Supernatants from these cells were collected at 24 hours post-stimulation and the levels of IFN-γ, IL-2, TNF and GM-CSF were determined with the MSD platform (MesoScale Discovery).
Supernatants from these cells were collected at 24 hours post-stimulation and the levels of IFN-γ, IL-2 and TNF were determined with the MSD platform (MesoScale Discovery).

Values joined by “and” are separate entries in the source; they are usually repeats but may differ in a detail not shown here. Identical values can stand only once. Marks after values point to notes of the source that are not given here.

GPR174, sequence (Q9BXC1 whole entry): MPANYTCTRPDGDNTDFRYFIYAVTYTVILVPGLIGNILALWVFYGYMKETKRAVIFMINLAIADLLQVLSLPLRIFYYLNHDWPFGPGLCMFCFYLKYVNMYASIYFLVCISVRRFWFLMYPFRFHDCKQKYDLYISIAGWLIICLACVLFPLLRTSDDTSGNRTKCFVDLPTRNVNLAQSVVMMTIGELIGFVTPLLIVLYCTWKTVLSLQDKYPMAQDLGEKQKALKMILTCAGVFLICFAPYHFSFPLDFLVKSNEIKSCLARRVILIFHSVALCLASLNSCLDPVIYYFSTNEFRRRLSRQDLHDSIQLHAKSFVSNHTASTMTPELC

One may read the EC50 as the concentration that produces a half-maximal response. Regarding `CCC(=O)N1CCN(c2cc(N3CCC(C)CC3)c(F)cc2[N+](=O)[O-])CC1` [compound 8], on GPR174, the “Fold decrease in Gs signaling activity” value was 3.3 fold; the EC50 is 700 nM and 400 nM.
On to `CC1CCN(c2cc(N3CCN(C(=O)c4cccs4)CC3)c([N+](=O)[O-])cc2F)CC1` [compound 12], for which, at GPR174, the “Fold decrease in Gs signaling activity” value is 3.9 fold; the EC50 was 400 nM and 700 nM.
Consider `Cc1ccc(S(=O)(=O)N2CCN(c3cc(N4CCC(C)CC4)c(F)cc3[N+](=O)[O-])CC2)cc1` [compound 14], for which, on GPR174, the “Fold decrease in Gs signaling activity” value is recorded as 3 fold and the EC50 is 1100 nM.
For `Cc1ccc(S(=O)(=O)N2CCN(c3cc(N4CCCCC4)c(F)cc3[N+](=O)[O-])CC2)cc1` [compound 15], in that order: 2.6 fold and 1700 nM.
Consider `CC(C)C(=O)N1CCN(c2cc(N3CCCCC3C)c(F)cc2[N+](=O)[O-])CC1` (centres unmarked) [compound 16], for which, on GPR174, the “Fold decrease in Gs signaling activity” value came out at 2.1 fold and the response was half-maximal at 800 nM (EC50).
The matching figures for `CC1CCCCN1c1cc(N2CCN(C(=O)C(C)(C)C)CC2)c([N+](=O)[O-])cc1F` (centres unmarked) [compound 17]: 2.0 fold and 3000 nM.
With `CCOC(=O)N1CCN(c2cc(N3CCCCC3C)c(F)cc2[N+](=O)[O-])CC1` (centres unmarked) [compound 18], at GPR174, the “Fold decrease in Gs signaling activity” value is 1.9 fold and the 50% effective concentration (EC50) is 1000 nM.
The matching figures for `O=C1CCCC2=C1C(c1cccc(O)c1)C1=C(N2)c2ccccc2C1=O` (centres unmarked) [compound 24]: 2.8 fold and 4400 nM.
For `O=C1CCCC2=C1C(c1ccccc1)C1=C(N2)c2ccccc2C1=O` (centres unmarked) [compound 25], at GPR174, the “Fold decrease in Gs signaling activity” value is reported as 4.2 fold and the EC50 came out at 4600 nM.
The matching figures for `COc1cc(C2C3=C(CCCC3=O)NC3=C2C(=O)c2ccccc23)ccc1O` (centres unmarked) [compound 26]: 1.7 fold and 3600 nM.
For the molecule `CCc1ccc(C2C3=C(CCCC3=O)NC3=C2C(=O)c2ccccc23)cc1` (centres unmarked) [compound 27], at GPR174, the “Fold decrease in Gs signaling activity” value is 6.2 fold; the half-maximal effective concentration (EC50) is 800 nM and 500 nM.
As to `COc1cccc(C2C3=C(CCCC3=O)NC3=C2C(=O)c2ccccc23)c1` (centres unmarked) [compound 28], at GPR174, the “Fold decrease in Gs signaling activity” value came out at 1.9 fold and the midpoint of the response, the EC50, lay at 3600 nM.
For the molecule `CC(C)c1ccc(C2C3=C(CCCC3=O)NC3=C2C(=O)c2ccccc23)cc1` (centres unmarked) [compound 29], on GPR174, the “Fold decrease in Gs signaling activity” value is 5.3 fold and the EC50 was found to be 1200 nM.
The matching figures for `CCOc1ccc(C2C3=C(CCCC3=O)NC3=C2C(=O)c2ccccc23)cc1OCC` (centres unmarked) [compound 30]: 2.2 fold and 3800 nM.
In the case of `O=C1CCCC2=C1C(c1ccc(-c3ccccc3)cc1)C1=C(N2)c2ccccc2C1=O` (centres unmarked) [compound 32], on GPR174, the “Fold decrease in Gs signaling activity” value is given as 3.9 fold and the EC50 amounted to 2500 nM.
The matching figures for `Cc1nnc(-c2ccc(C3C4=C(CCCC4=O)NC4=C3C(=O)c3ccccc34)cc2)o1` (centres unmarked) [compound 34]: 8.4 fold and 2800 nM.
Regarding `O=C1CCCC2=C1C(c1ccc(F)cc1)C1=C(N2)c2ccccc2C1=O` (centres unmarked) [compound 35], on GPR174, the “Fold decrease in Gs signaling activity” value stood at 2.8 fold and the 50% effective concentration (EC50) was found to be 4300 nM.
The matching figures for `O=C1CCCC2=C1C(c1cccnc1)C1=C(N2)c2ccccc2C1=O` (centres unmarked) [compound 37]: 2.8 fold and 5400 nM.
In the case of `O=C1CCCC2=C1C(c1ccc([N+](=O)[O-])cc1)C1=C(N2)c2ccccc2C1=O` (centres unmarked) [compound 38], on GPR174, the “Fold decrease in Gs signaling activity” value is 8.6 fold and the EC50 was 2700 nM.
Regarding `O=C1CCCC2=C1C(c1ccc(Cl)cc1)C1=C(N2)c2ccccc2C1=O` (centres unmarked) [compound 39], at GPR174, the “Fold decrease in Gs signaling activity” value is given as 7.8 fold and the EC50 was determined as 3000 nM.
The matching figures for `CS(=O)(=O)c1ccc(C2C3=C(CCCC3=O)NC3=C2C(=O)c2ccccc23)cc1` (centres unmarked) [compound 40]: 8.8 fold and 3300 nM.
As for `CCCOc1ccc(C2C3=C(CCCC3=O)NC3=C2C(=O)c2ccccc23)cc1` (centres unmarked) [compound 41], at GPR174, the “Fold decrease in Gs signaling activity” value was 13.7 fold and a half-maximal effect (EC50) was put at 1000 nM.
With `O=C1CCCC2=C1C(c1ccc(N3CCCC3=O)cc1)C1=C(N2)c2ccccc2C1=O` (centres unmarked) [compound 43], on GPR174, the “Fold decrease in Gs signaling activity” value turned out to be 5.1 fold and a half-maximal response (EC50) required 5200 nM.
Turning to `CC(C)(C)Oc1ccc(C2C3=C(CCCC3=O)NC3=C2C(=O)c2ccccc23)cc1` (centres unmarked) [compound 44], on GPR174, the “Fold decrease in Gs signaling activity” value stood at 4.7 fold and the EC50 was found to be 1300 nM.
As to `O=C1CCCC2=C1C(c1ccc(OC3CCCC3)cc1)C1=C(N2)c2ccccc2C1=O` (centres unmarked) [compound 45], at GPR174, the “Fold decrease in Gs signaling activity” value is listed as 7.6 fold and the concentration for a half-maximal effect (EC50) was found to be 1000 nM.
Regarding `O=C1CCCC2=C1C(c1ccc(OC(F)F)cc1)C1=C(N2)c2ccccc2C1=O` (centres unmarked) [compound 46], at GPR174, the “Fold decrease in Gs signaling activity” value was determined as 8.1 fold and the EC50 is 1200 nM.
For `O=C1CCCC2=C1C(c1ccc(Oc3ccccc3)cc1)C1=C(N2)c2ccccc2C1=O` (centres unmarked) [compound 47], in that order: 7.1 fold and 1000 nM.
For `O=C1CCCC2=C1C(c1ccc(OC(F)(F)F)cc1)C1=C(N2)c2ccccc2C1=O` (centres unmarked) [compound 48], in that order: 5 fold and 1200 nM.

B1: ADA: adenosine deaminase, an enzyme that catabolizes adenosine into inosine (protein, UniProt P00813 2-363, looked up)
Adenosine deaminase: AQTPAFDKPKVELHVHLDGSIKPETILYYGRRRGIALPANTAEGLLNVIGMDKPLTLPDFLAKFDYYMPAIAGCREAIKRIAYEFVEMKAKEGVVYVEVRYSPHLLANSKVEPIPWNQAEGDLTPDEVVALVGQGLQEGERDFGVKARSILCCMRHQPNWSPKVVELCKKYQQQTVVAIDLAGDETIPGSSLLPGHVQAYQEAVKSGIHRTVHAGEVGSAEVVKEAVDILKTERLGHGYHTLEDQALYNRLRQENMHFEICPWSSYLTGAWKPDTEHAVIRLKNDQANYSLNTDDPLIFKSTLDTDYQMTKRDMGFTEEEFKRLNINAAKSSFLPEDEKRELLDLLYKAYGMPPSASAGQNL
Take B1: in the assay with human PBMCs (donor 3), the “IFN-γ, MRS/Veh: ratio in the presence vs. the absence of MRS-1754” value is 0.7*; the “IL-2, MRS/Veh: ratio in the presence vs. the absence of MRS-1754” value was 0.9; the “TNF, MRS/Veh: ratio in the presence vs. the absence of MRS-1754” value is reported as 0.9; the “IFN-γ, ratio relative to vehicle control (MRS)” value was determined as 1.1 fold. In addition, in the assay on human PBMCs (donor 3), the “IL-2, ratio relative to vehicle control (MRS column)” value is 1.9* fold and the “TNF, ratio relative to vehicle control (MRS column)” value is 1.9* fold. In the assay on human PBMCs (donor 3, no MRS), the “IFN-γ, ratio relative to vehicle control (Veh column)” value is recorded as 1.7* fold; the “IL-2, ratio relative to vehicle control (Veh column)” value is given as 2.2* fold; the “TNF, ratio relative to vehicle control (Veh column)” value is listed as 2.2* fold. In addition, in the assay with human PBMCs (donor 6), the “IFN-γ, MRS/Veh: ratio in the presence vs. the absence of MRS-1754” value was determined as 1.3; the “IL-2, MRS/Veh: ratio in the presence vs. the absence of MRS-1754” value was 1.0; the “TNF, MRS/Veh: ratio in the presence vs. the absence of MRS-1754” value was 1.2*; the “IFN-γ, ratio relative to vehicle control (MRS)” value is on record as 1.5* fold. Further, in the assay on human PBMCs (donor 6), the “IL-2, ratio relative to vehicle control (MRS column)” value was 1.3* fold and the “TNF, ratio relative to vehicle control (MRS column)” value is 1.4* fold. Besides, in the assay on human PBMCs (donor 6, no MRS), the “IFN-γ, ratio relative to vehicle control (Veh column)” value was found to be 1.2 fold; the “IL-2, ratio relative to vehicle control (Veh column)” value is on record as 1.3* fold; the “TNF, ratio relative to vehicle control (Veh column)” value is 1.2* fold.
